# According to patent publication US20160037782A1, “COMBINATIONS OF ANTIFUNGAL COMPOUNDS AND TEA TREE OIL” (priority 2011, published 2016):
# How the values were obtained:
# coffee plant rust = test: Coffee plant rust: compositions applied to coffee plant leaves, degree and severity of infection observed later (Example 1); format: in vivo, Hemileia vastatrix; conditions: applied alone
# Protocol: The effect of application of a TTO-containing composition (Timorex Gold®), alone and in combination with tebuconazole (simultaneous and in alternation), on coffee plant rust, was tested, by applying the compositions to coffee plant leaves and observing the degree and severity of infection later.
# rust in green onions = test: Control of rust in organically grown green onions, field spray trial (Example 3); format: in vivo, Puccinia alli; conditions: 2.5 g/l
# Protocol: (§1) Treatments were applied in a randomized complete block, with 5 replications per treatment. Plot size in each instance was of 6 m length, containing 20 plants. Fungicidal treatment was applied using backpack sprayer equipped with a mist blower (STHIL 340) to spray a volume of 300 liter/ha. Disease severity was evaluated by determining the leaf area covered with rust (disease severity) on each of 20 leaves randomly selected per each replicate. To analyze the results, an arc-sin transformation was performed on the raw data, and analysis of variance (ANOVA) using the SAS GLM procedure was applied to the transformed data. The Tukey-Kramer Test was applied to determine whether differences between treatments were significant. In the tables, “a”, “b” and “c”, refer to differences in statistical analysis that are familiar to users of the Tukey-Kramer test.
# In a manner similar to that in Example 2, the effect of TG and the copper hydroxide solution were tested on organically grown green onions, by application at a rate of 500 l/ha.
# rust in garlic plants = test: Control of rust in organically grown garlic plants, field spray trial (Example 2); format: in vivo, Puccinia alli; conditions: 0.25%
# Protocol: Organically grown garlic plants were treated with a 53.8% copper hydroxide solution, Timorex Gold, or a mixture of the two. The plants were sprayed six times, on the first day of the trial and then approximately every six days thereafter. Observations were made on days 1 (before spraying), 29 and 40 of the trial. The results are shown in the table below; d.a.a.=days after application; numbers are presented as % of disease severity on leaves. The effectiveness may have been comprised by the relatively large amount of rain that fell during the trial.
# as §1
# [1] = 4th evaluation, 1 day after 5th treatment
# [2] = 5th evaluation, on day of 7th treatment
# [3] = 6th evaluation, 7 days after 7th treatment
# [4] = second evaluation, 2 days after second treatment
# [5] = third evaluation, on day of fourth treatment
SMILES,retention of leaves by the plants (coffee plant rust),severity of the disease (coffee plant rust; coffee plants),% area infected by rust (rust in green onions; [1]),"Efficacy of treatment, % (rust in green onions; [1])",% area infected by rust (rust in green onions; [2]),"Efficacy of treatment, % (rust in green onions; [2])",% area infected by rust (rust in green onions; [3]),"Efficacy of treatment, % (rust in green onions; [3])","% area infected by rust (rust in green onions; first evaluation, before treatment)",% area infected by rust (rust in green onions; [4]),"Efficacy of treatment, % (rust in green onions; [4])",% area infected by rust (rust in green onions; [5]),"Efficacy of treatment, % (rust in green onions; [5])",40 d.a.a. % green relative to control (rust in garlic plants; 40 d.a.a.),40 d.a.a.: % green (rust in garlic plants; 40 d.a.a.),Day 0 % of infected area (rust in garlic plants; baseline before spraying),Effectiveness in eradicating relative to control (rust in garlic plants; six days after fifth application),"% of infected area (rust in garlic plants; six days after fifth application, 300 liter/ha)"
CC(C)(C)C(O)(CCc1ccc(Cl)cc1)Cn1cncn1 (stereo not drawn) [tebuconazole],higher retention of leaves,overall lower severity of the disease,–,–,–,–,–,–,–,–,–,–,–,–,–,–,–,–
"[Cu+2].[OH-].[OH-] [Copper hydroxide, copper hydroxide]",–,–,8.5 b %,70.3%,12.5 b %,76.9%,18.7 b %,75.1%,0.3 a %,1.8 ab %,62.1%,2.5 b %,79.2%,206.1%,60.0 a %,0.2 a %,53.0,27.0 b %
